Laboratory results taken from patent US20240279232A1, “USE OF SUBSTITUTED 5-(4-METHYL-6-PHENYL-4H-BENZO[F]IMIDAZO[1,5-A][1,4] DIAZEPIN-3-YL)-1,2,4-O[…] THE TREATMENT OF INFLAMMATORY CONDITIONS” (priority 2021, published 2024).
Like-named read-outs stand apart in the source and are kept apart here.

Assays:
[1] = molecular target: T1, MOR (μ opioid receptor) (Homo sapiens, UniProt P35372); assay: MOR radioligand binding ([3H]-DAMGO, HEK293 cell homogenates); settings: Percent inhibition at 10,000 nM; [3H]-DAMGO
T1 construct: expressed in transfected cells; host or cells: HEK293
T1 sequence (P35372 whole entry, species assumed): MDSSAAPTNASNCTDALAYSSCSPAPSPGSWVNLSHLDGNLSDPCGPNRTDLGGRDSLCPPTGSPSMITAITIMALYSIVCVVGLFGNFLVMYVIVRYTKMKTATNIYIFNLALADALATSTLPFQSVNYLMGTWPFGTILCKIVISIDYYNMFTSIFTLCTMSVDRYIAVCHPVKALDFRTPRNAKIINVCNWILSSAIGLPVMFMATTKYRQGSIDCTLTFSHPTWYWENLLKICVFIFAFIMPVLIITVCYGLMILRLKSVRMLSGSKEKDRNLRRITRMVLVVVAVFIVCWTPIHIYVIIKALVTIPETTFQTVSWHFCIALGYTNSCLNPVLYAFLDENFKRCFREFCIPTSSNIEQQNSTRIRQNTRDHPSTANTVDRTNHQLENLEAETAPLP
Protocol: (§1) Radioligand binding assays. Detailed protocols for the primary and secondary radioligand binding assays can be found in the National Institute of Mental Health's Psychoactive Drug Screening Program (NIMH PDSP) Assay Protocol Book (Roth, 2018). Briefly, primary and secondary radioligand binding assays are carried out in a final of volume of 125 μL per well in appropriate binding buffer. […] Total binding and nonspecific binding are determined in the absence and presence of 10 μM of appropriate reference compound (Naltrindole DOR, Salvinorin A KOR and DAMGO MOR). In brief, plates are usually incubated at room temperature and in the dark for 90 min. Reactions are stopped by vacuum filtration onto 0.3% polyethyleneimine (PEI) soaked 96-well filter mats using a 96-well Filtermate harvester, followed by three washes with cold PBS buffer. Scintillation cocktail is then melted onto the microwave-dried filters on a hot plate and radioactivity counted in a Microbeta counter. The data (n=6) were analyzed by nonlinear regression.
(§2) Ligand affinities were determined for KOR (κ opioid receptor), DOR (δ opioid receptor), and MOR (μ opioid receptor) using radioligand binding assays at a screening concentration of 10,000 nM. For these assays, cell homogenates from HEK293 cells that overexpressed KOR, MOR, and DOR were used in combination with [^3H]-U69593, [^3H]-DAMGO, and [^3H]-DADLE, respectively Compounds that exceeded more than 50% radioligand displacement were investigated further in concentration-dependent experiments to determine Ki values. Gamma aminobutyric acid type A receptor (GABAAR) binding was determined with rat brain homogenate and ^3H-flunitrazepam. Flunitrazepam binds GABAAR subtypes that consists of two α and two β subunits and one γ or δ subunit. Strong affinities to α1-3,5,6β1-3γ1-y/δ GABAARS have been reported for flunitrazepam. The […] GABAAR subtype expression in the brain includes 43% α1β2γ2, 15% α2β3γ2+8% α2βγ1, 10% α3β3γ2, 6% α4βγ/δ, 4% α5β3γ2, and 4% α6β2γ2/δ. Therefore, compounds with high affinity toward the synaptic benzodiazepine-sensitive receptors (BZR) predominately bind α1-3β2-3γ1-2 GABAARs. Alternatively, compounds with weak BZR binding might be selective for α4-6βγ/δ GABAARs.
(§3) Psychoactive Drug Screening Program. Detailed protocols for the primary and secondary radioligand binding assays can be found in the National Institute of Mental Health's Psychoactive Drug Screening Program (NIMH PDSP) Assay Protocol Book. Briefly, primary and secondary radioligand binding assays are carried out in a final of volume of 125 μL per well in appropriate binding buffer. The radioactive ligand concentration is close to the Kd. Total binding and nonspecific binding are determined in the absence and presence of 10 μM of appropriate reference compound, respectively. In brief, plates are usually incubated at room temperature and in the dark for 90 min. Reactions are stopped by vacuum filtration onto 0.3% polyethyleneimine (PEI) soaked 96-well filter mats using a 96-well Filtermate harvester, followed by three washes with cold PBS buffer. Scintillation cocktail is then melted onto the microwave-dried filters on a hot plate and radioactivity counted in a Microbeta counter. The data (n=6) were analyzed by nonlinear regression.

[2] = molecular target: T2, DOR (δ opioid receptor) (Homo sapiens, UniProt P41143); assay: DOR radioligand binding ([3H]-DADLE, HEK293 cell homogenates); settings: Percent inhibition at 10,000 nM; [3H]-DADLE
T2 construct: expressed in transfected cells; host or cells: HEK293
T2 sequence (P41143 whole entry): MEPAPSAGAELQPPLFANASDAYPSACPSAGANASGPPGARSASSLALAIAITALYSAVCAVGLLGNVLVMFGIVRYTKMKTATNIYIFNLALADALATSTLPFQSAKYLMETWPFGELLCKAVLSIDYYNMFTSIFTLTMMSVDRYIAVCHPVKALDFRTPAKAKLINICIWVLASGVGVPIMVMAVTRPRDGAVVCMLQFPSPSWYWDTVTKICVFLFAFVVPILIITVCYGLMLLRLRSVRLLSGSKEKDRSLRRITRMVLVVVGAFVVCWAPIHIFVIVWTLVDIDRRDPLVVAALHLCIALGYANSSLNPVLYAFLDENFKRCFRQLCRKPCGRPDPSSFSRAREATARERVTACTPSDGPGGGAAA
Protocol: as §1, §2, §3

[3] = molecular target: T3, KOR (κ opioid receptor) (Homo sapiens, UniProt P41145); assay: KOR radioligand binding ([3H]-U69593, HEK293 cell homogenates); settings: for inhibition at 10 µM: Percent inhibition at 10,000 nM
T3 construct: expressed in transfected cells; host or cells: HEK293 (stably transfected)
T3 sequence (P41145 whole entry): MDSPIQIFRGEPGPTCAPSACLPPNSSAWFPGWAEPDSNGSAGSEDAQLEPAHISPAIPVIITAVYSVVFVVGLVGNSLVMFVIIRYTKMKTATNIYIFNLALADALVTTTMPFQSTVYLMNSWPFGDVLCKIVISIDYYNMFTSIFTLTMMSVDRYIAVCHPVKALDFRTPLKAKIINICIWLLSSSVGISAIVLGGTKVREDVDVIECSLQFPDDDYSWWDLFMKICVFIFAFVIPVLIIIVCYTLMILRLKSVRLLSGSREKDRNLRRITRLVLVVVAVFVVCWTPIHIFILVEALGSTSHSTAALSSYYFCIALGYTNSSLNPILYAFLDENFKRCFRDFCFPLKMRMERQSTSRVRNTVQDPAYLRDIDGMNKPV
Protocol: as §1, §2, §3

[4] = system: Mouse microglia; assay: NO production (Griess assay), LPS/IFNγ-activated mouse microglia; assay type: cell-based
Protocol: (§4) Next, a library of GABAAR ligands was investigated to identify compounds that reduce the production of NO as a marker of anti-inflammatory activity. […] NO was quantified with a Greiss assay. Cell viability was determined with CellTiter-Glo.
Cell culture. A) HMC3 Microglia (CRL-3304) were maintained in treated cell culture flasks (Nunc, 156472) with EMEM (Corning, 10010CV) supplemented with 10% heat-inactivated FBS (Corning, 35011CV) and 100 U/mL penicillin and 100 μg/mL streptomycin (Hyclone, SV30010). Cultures were maintained at 37° C. and 5% CO2. When cells reached a density of 7×10^4 cells/mL, cultures were passaged with 0.25% Trypsin (Corning, 25-053-CI) and resuspended to a density no lower than 10,000 cells/mL. B) Human and mouse microglia cell lines were a gift from Dr. David Alvarez-Carbonell at Case Western Reserve University (Cleveland, OH). Microglia were cultured in cell culture treated flasks (Nunc, 156472) with DME/F12 media (Hyclone, SH30023.01) supplemented with 10% heat-inactivated FBS (Corning, 35011CV), 100 U/mL penicillin/100 μg/mL streptomycin (Hyclone, SV30010), and Normocin (Invivogen, ant-nr). Cultures were maintained at 37° C. and 5% CO2. […] Cultures were maintained at 37° C. and 5% CO2. Cells were passaged when they reached a density of approximately 3×10^6 cells/mL using cell scrapers (VWR, 10062-906) to lift cells from flask surface and resuspended at densities of approximately 500,000 cells/mL.
(§5) Nitric oxide production (Griess assay) and viability assay (CellTiter-Glo). 80 μL of mouse microglia culture (1×10^6 cells/mL) was plated into sterile 384 well plates representing non-activated wells. The remaining culture was activated with 50 ng/ml LPS (Invivogen, NC9836) and 150 U/mL IFNγ (R&D Systems, 485MI100) and distributed into the 384 well plates. […] Assay plates were incubated for approximately 24 hours (unless otherwise noted) at 37° C., centrifuged, and 40 μL of supernatant transferred to a new plate for analysis using the Griess Assay (Promega, Madison, WI). Absorbance at 530 nm was measured using a TECAN Infinite M1000 plate reader. The remaining 40 μL containing cells was analyzed for toxicity by the CellTiter-Glo Assay (Promega, Madison, WI). Luminescence was read using a TECAN Infinite M1000 plate reader.

[5] = system: BZR (benzodiazepine site of GABAAR); assay: GABAAR/BZR binding, rat brain homogenate with 3H-flunitrazepam; settings: rat brain homogenate, 3H-flunitrazepam; for BZR %: Percent inhibition at 10,000 nM
Protocol: as §2, §3

[6] = system: Mouse microglia; assay: Cell viability (CellTiter-Glo), mouse microglia; assay type: cell-based; settings: CellTiter-Glo
Protocol: as §4, §5

[7] = concentration-dependent, [3H]-U69593, read-out: KOR (Ki)

Row | Compound | inhibition at 10 µM [1] | inhibition at 10 µM [2] | inhibition at 10 µM ([3]; [3H]-U69593) | Ki [3, 7] | inhibition at 50 µM ([4]; Mus musculus, Microglia, 24 h) | BZR % [5] | Ki [5] | Cell viability (%) Mouse microglia 50 μM [6] | Inhibition of NO production (%) Mouse microglia 50 μM ([4]; 50 μM, 24 hours, 1 μM GABA, LPS/IFNγ) | cell viability / cytotoxicity in the NO competition experiments (in words) ([6]; activated microglia) | Ki [3] | inhibition at 10 µM ([4]; Mus musculus, Microglia, 24 h)
1 | C#Cc1ccc2c(c1)C(c1ccccc1)=NCc1c(-c3cnco3)ncn1-2 [KRM-II-82] | 5% | 20% | 78% | 1200 nM | 0% | 95% | 96 nM | 100 ± 6% |  |  |  | 
2 | C#Cc1ccc2c(c1)C(c1ccccc1F)=NCc1c(-c3cnco3)ncn1-2 [KRM-II-18B] | 11% | 20% | 89% | 361 nM | 0% | 97% | 38 nM | 100 ± 3% |  |  |  | 
3 | C#Cc1ccc2c(c1)C(c1ccccc1F)=NCc1c(C(=O)OCCCOC(=O)c3ncn4c3CN=C(c3ccccc3F)c3cc(C#C)ccc3-4)ncn1-2 [YT-III-271] |  |  |  |  |  |  |  | 100 ± 3% | 0 ± 4% |  |  | 
4 | C[C@@H]1C[C@H]2[C@@H]3CCC4=CC(=O)C=C[C@]4(C)[C@@]3(F)[C@@H](O)C[C@]2(C)[C@@]1(O)C(=O)CO [dexamethasone, reference compound] |  |  |  |  |  |  |  |  |  | without cell toxicity |  | 
5 | C#Cc1ccc2c(c1)C(c1ccccc1F)=N[C@@H](C)c1c(-c3nc(C)no3)ncn1-2 [GL-I-65, (S)-5-(8-Ethynyl-6-(2-fluorophenyl)-4-methyl-4H-benzo[f]imidazo[1,5-a][1,4]diazepin-3-yl)-3-methyl-1,2,4-oxadiazole] | 2% | 7% | 88% |  | 19 ± 9% | 79% | 1150 nM | 100 ± 12% |  |  | 222 nM | 
6 | C#Cc1ccc2c(c1)C(c1ccccc1F)=N[C@@H](C)c1c(-c3nc(CC)no3)ncn1-2 [GL-I-66, (S)-3-Ethyl-5-(8-ethynyl-6-(2-fluorophenyl)-4-methyl-4H-benzo[f]imidazo[1,5-a][1,4]diazepin-3-yl)-1,2,4-oxadiazole] | 28% | 2% | 92% |  | 86 ± 11% | 80% | 654 nM | 71 ± 9% |  |  | 212 nM | 5 ± 2%
7 | C#Cc1ccc2c(c1)C(c1ccccn1)=NCc1c(-c3nc(CC)no3)ncn1-2 [MP-III-080] | 0% | 0% | 47% |  | 0% | 88% | 303 nM | 100 ± 14% |  |  |  | 
8 | C#Cc1ccc2c(c1)C(c1ccccn1)=NCc1c(-c3cnco3)ncn1-2 [KRM-III-67] | 30% | 3% | 48% |  |  | 71% | 144 nM |  |  |  |  | 
9 | C#Cc1ccc2c(c1)C(c1ccccc1F)=N[C@@H](C)c1c(C(=O)OC(C)(C)CC)ncn1-2 [GL-I-33] | 30% | 25% | 94% | 34 nM |  | 96% | 117 nM |  |  |  |  | 
10 | C#Cc1ccc2c(c1)C(c1ccccc1F)=N[C@@H](C)c1c(C(=O)OC(C)C)ncn1-2 [GL-I-31] | 32% | 8% | 94% | 65 nM |  | 97% | 245 nM |  |  |  |  | 
11 | C#Cc1ccc2c(c1)C(c1ccccc1F)=N[C@@H](C)c1c(C(=O)O)ncn1-2 [SH-053-2′P-S-CH3 Acid] | 0% | 18% | 20% |  |  | 93% | 29 nM |  |  |  |  | 
12 | CCOC(=O)c1ncn2c1[C@@H](C)N=C(c1ccccc1F)c1cc(Br)ccc1-2 [SH-I-047] | 16% | 0% | 82% |  |  | 84% | 238 nM |  |  |  | 86 nM | 
13 | C#Cc1ccc2c(c1)C(c1ccccc1F)=N[C@@H](C)c1c(C(=O)SCC)ncn1-2 [GL-I-77] | 41% | 4% | 95% | 125 nM |  | 92% | 124 nM |  |  |  |  | 
14 | C#Cc1ccc2c(c1)C(c1ccccc1F)=N[C@@H](C)c1c(C(=O)NCC)ncn1-2 [GL-I-43] | 22% | 3% | 95% | 102 nM |  | 94% | 44 nM |  |  |  |  | 
15 | C#Cc1ccc2c(c1)C(c1ccccc1F)=N[C@@H](C)c1c(C(=O)OCC)ncn1-2 [SH-053-2′F-S-CH3] | 7% | 36% | 93% | 90 nM |  | 92% | 111 nM |  |  |  |  | 
